In patent publication US9802937B2, “Substituted pyrazolo{4,3-D}pyrimidines as kinase inhibitors” (ORIGENIS GMBH, priority 2011, dated 2017) one finds Ki and IC50 data, which are given here for 13 molecules.

One assay deals with T1, SYK kinase (Homo sapiens, UniProt P43405).
T1 construct: purchased Invitrogen, Carlsbad
Put plainly: SYK Assay (OMNIA KINASE ASSAY, SOX peptide fluorescence). The assay is classed as biochemical. Conditions: apparent Ki calculated from the IC50 using the Cheng-Prusoff equation; 1 mM ATP, 30° C.; read-out: SYK Activities: Ki. The method, boiled down:
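Apparent Ki values are derived by Cheng-Prusoff from IC50s of sigmoidal fits of reaction rate against compound concentration. Rates come from chelation-enhanced SOX fluorescence (λex 360/λem 485 nm, read every 30 s over 30 min) as the kinase phosphorylates 10 µM Omnia Tyr 7 peptide at 30 °C, with 1 mM ATP and 0.2 mM DTT.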

The next assay concerns the target LRRK2 (Homo sapiens, UniProt Q5S007). Kind of assay: LRRK2-LRRK2 G2019S-Assay (LanthaScreen Eu Kinase Binding Assay). The conditions noted are these: 5 nM LRRK2 or their mutants, 10 nM tracer 236, RT 1 h; read-out: LRRK2 Activities: IC50. The method, boiled down:
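Kinase (wild type or mutant, 5 nM) mixed with Eu-anti-GST antibody (2 nM), then 10 nM Alexa Fluor 647 tracer 236 added. After 1 h at room temperature, the acceptor/donor (665/615 nm) FRET ratio was measured. IC50 was fitted from concentration–ratio curves.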
On the technique in general: Time-resolved FRET reads energy transfer from a long-lived donor to a nearby acceptor.

Chain of LRRK2 (Q5S007 970-2527 limits assumed): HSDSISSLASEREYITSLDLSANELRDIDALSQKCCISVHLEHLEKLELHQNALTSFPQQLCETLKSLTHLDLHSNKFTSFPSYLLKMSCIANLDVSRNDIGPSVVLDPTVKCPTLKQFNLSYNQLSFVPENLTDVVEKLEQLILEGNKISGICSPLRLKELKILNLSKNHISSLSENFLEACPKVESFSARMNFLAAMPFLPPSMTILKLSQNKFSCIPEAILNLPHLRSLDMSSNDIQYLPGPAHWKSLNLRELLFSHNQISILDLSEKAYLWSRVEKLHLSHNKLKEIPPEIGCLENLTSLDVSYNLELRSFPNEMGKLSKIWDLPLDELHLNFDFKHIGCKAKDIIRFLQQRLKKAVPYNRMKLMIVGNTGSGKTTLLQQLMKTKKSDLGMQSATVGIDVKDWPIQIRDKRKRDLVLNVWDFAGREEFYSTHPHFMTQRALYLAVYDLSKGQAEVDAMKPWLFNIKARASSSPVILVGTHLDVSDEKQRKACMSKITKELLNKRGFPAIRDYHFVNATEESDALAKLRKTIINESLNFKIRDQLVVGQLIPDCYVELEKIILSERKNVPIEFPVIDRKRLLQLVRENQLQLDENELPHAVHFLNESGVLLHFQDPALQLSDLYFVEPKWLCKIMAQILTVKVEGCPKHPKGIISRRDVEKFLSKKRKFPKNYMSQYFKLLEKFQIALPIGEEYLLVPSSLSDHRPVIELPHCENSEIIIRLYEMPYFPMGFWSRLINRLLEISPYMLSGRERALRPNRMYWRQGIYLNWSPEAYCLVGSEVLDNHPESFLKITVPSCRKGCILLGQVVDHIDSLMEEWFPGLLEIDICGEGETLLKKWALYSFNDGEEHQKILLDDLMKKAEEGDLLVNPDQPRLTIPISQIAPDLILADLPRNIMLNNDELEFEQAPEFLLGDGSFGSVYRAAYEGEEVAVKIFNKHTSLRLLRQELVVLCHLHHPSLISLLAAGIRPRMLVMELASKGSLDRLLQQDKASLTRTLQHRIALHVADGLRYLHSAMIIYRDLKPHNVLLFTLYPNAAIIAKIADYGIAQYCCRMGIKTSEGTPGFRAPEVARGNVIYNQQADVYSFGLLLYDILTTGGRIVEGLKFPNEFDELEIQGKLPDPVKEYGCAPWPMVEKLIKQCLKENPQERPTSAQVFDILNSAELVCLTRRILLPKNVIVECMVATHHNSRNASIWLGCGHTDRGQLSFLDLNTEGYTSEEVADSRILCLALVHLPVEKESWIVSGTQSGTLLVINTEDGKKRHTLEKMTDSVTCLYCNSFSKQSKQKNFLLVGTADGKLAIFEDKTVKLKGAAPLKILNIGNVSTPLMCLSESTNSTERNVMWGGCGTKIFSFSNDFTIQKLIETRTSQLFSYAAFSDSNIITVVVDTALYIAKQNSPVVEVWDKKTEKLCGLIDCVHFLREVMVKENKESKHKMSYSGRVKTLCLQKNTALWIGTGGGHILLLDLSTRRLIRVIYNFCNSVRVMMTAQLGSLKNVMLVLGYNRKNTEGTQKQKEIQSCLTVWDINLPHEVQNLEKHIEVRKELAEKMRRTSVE

Usually IC50 stands for the concentration needed to halve the response being measured. In the case of `COc1ccc(Nc2nc(-c3ccccc3OC)nc3cn[nH]c23)cc1OC` [Example #109, N-(3,4-dimethoxyphenyl)-5-(2-methoxyphenyl)-1H-pyrazolo[4,3-d]pyrimidin-7-amine], the Ki at SYK kinase was 10 to 100 nM. The IC50 on LRRK2 lay within 100 to 1000 nM.
On to `COc1ccc(-c2nc(Nc3cccc(O)c3)c3[nH]ncc3n2)cc1` [Example #80, 3-((5-(4-methoxyphenyl)-1H-pyrazolo[4,3-d]pyrimidin-7-yl)amino)phenol], for which the Ki on SYK kinase is 10 to 100 nM. Also, the IC50 at LRRK2 is 100 to 1000 nM.
On to `COc1ccc(-c2nc(Nc3ccc(N4CCOCC4)cc3)c3[nH]ncc3n2)cc1` [Example #59, 5-(4-methoxyphenyl)-N-(4-morpholinophenyl)-1H-pyrazolo[4,3-d]pyrimidin-7-amine], for which the Ki at SYK kinase was under 10 nM. In addition, the IC50 at LRRK2 fell in the range of 10 to 100 nM.
As for `O=C1CCc2ccc(Nc3nc(-c4cscn4)nc4cn[nH]c34)cc2N1` [Example #206, 7-((5-(thiazol-4-yl)-1H-pyrazolo[4,3-d]pyrimidin-7-yl)amino)-3,4-dihydroquinolin-2(1H)-one], at SYK kinase, the Ki was under 10 nM. Further, the IC50 at LRRK2 lay in the range of 10 to 100 nM.
For `CN(C)c1ccc(Nc2nc(-c3ccccc3)nc3cn[nH]c23)cc1` [Example #4, N1,N1-dimethyl-N4-(5-phenyl-1H-pyrazolo[4,3-d]pyrimidin-7-yl)benzene-1,4-diamine], the Ki at SYK kinase is under 10 nM. Moreover, the IC50 at LRRK2 was in the range of 100 to 1000 nM.
On to `COc1ccc(-c2nc(Nc3cc(C4CC4)[nH]n3)c3[nH]ncc3n2)cc1` [Example #86, N-(5-cyclopropyl-1H-pyrazol-3-yl)-5-(4-methoxyphenyl)-1H-pyrazolo[4,3-d]pyrimidin-7-amine], for which, at SYK kinase, the Ki was 10 to 100 nM. The IC50 on LRRK2 was 100 to 1000 nM.
Consider `COc1ccc(Nc2nc(-c3cccc(-c4cccnc4)c3)nc3cn[nH]c23)cc1OC` [Example #101, N-(3,4-dimethoxyphenyl)-5-(3-(pyridin-3-yl)phenyl)-1H-pyrazolo[4,3-d]pyrimidin-7-amine], for which the Ki on SYK kinase is 10 to 100 nM. The IC50 at LRRK2 lay in the range of 100 to 1000 nM.
Take `COc1cccc(-c2nc(Nc3ccc4c(c3)NCCO4)c3[nH]ncc3n2)c1` [Example #89, N-(5-(3-methoxyphenyl)-1H-pyrazolo[4,3-d]pyrimidin-7-yl)-3,4-dihydro-2H-benzo[b][1,4]oxazin-6-amine]: the Ki on SYK kinase is 10 to 100 nM. For the same molecule, at LRRK2, the IC50 lay in the range of 10 to 100 nM.
As for `c1ccc(-c2nc(Nc3ccc(N4CCOCC4)cc3)c3[nH]ncc3n2)cc1` [Example #7, N-(4-morpholinophenyl)-5-phenyl-1H-pyrazolo[4,3-d]pyrimidin-7-amine], the Ki on SYK kinase was under 10 nM. The IC50 at LRRK2 is 100 to 1000 nM.
For the molecule `O=C(c1ccc(Nc2nc(-c3ccsc3)nc3cn[nH]c23)cc1)N1CCCC1` [Example #142, pyrrolidin-1-yl(4-((5-(thiophen-3-yl)-1H-pyrazolo[4,3-d]pyrimidin-7-yl)amino)phenyl)methanone], the Ki at SYK kinase is 10 to 100 nM. In addition, at LRRK2, the IC50 was in the range of 100 to 1000 nM.
Take `COc1ccc(-c2nc(Nc3ccc4c(c3)NC(=O)CCC4)c3[nH]ncc3n2)cc1` [Example #164, 8-((5-(4-methoxyphenyl)-1H-pyrazolo[4,3-d]pyrimidin-7-yl)amino)-4,5-dihydro-1H-benzo[b]azepin-2(3H)-one]: the Ki at SYK kinase is under 10 nM. Also, the IC50 on LRRK2 fell in the range of 10 to 100 nM.
In the case of `COc1ccc(Nc2nc(-c3ccsc3)nc3cn[nH]c23)cc1OC` [Example #72, N-(3,4-dimethoxyphenyl)-5-(thiophen-3-yl)-1H-pyrazolo[4,3-d]pyrimidin-7-amine], the Ki on SYK kinase was under 10 nM. Further, on LRRK2, the IC50 fell in the range of 10 to 100 nM.
As for `O=C1CCc2ccc(Nc3nc(-c4cccc(-c5nn[nH]n5)c4)nc4cn[nH]c34)cc2N1` [Example #196, 7-((5-(3-(2H-tetrazol-5-yl)phenyl)-1H-pyrazolo[4,3-d]pyrimidin-7-yl)amino)-3,4-dihydroquinolin-2(1H)-one], the Ki on SYK kinase is under 10 nM. Also, on LRRK2, the IC50 was in the range of 100 to 1000 nM.
